Test results as given in US11040981B2, “Pyrrolotriazine compounds and methods of inhibiting TAM kinases” (Syros Pharmaceuticals, Inc., priority 2017, dated 2021).

Tests used:
[1] = biological target: T1, MERTK (Homo sapiens, UniProt Q12866); assay: TR-FRET kinase activity assay, MERTK; assay type: biochemical; details: for IC50: TR-FRET activity assay, ATP at Km, 60 minutes, read-out: Mer IC50; for FLT3/Mer ratio (FLT3 IC50/Mer IC50): ratio calculated as FLT3 IC50/Mer IC50
T1 sequence (Q12866 21-999): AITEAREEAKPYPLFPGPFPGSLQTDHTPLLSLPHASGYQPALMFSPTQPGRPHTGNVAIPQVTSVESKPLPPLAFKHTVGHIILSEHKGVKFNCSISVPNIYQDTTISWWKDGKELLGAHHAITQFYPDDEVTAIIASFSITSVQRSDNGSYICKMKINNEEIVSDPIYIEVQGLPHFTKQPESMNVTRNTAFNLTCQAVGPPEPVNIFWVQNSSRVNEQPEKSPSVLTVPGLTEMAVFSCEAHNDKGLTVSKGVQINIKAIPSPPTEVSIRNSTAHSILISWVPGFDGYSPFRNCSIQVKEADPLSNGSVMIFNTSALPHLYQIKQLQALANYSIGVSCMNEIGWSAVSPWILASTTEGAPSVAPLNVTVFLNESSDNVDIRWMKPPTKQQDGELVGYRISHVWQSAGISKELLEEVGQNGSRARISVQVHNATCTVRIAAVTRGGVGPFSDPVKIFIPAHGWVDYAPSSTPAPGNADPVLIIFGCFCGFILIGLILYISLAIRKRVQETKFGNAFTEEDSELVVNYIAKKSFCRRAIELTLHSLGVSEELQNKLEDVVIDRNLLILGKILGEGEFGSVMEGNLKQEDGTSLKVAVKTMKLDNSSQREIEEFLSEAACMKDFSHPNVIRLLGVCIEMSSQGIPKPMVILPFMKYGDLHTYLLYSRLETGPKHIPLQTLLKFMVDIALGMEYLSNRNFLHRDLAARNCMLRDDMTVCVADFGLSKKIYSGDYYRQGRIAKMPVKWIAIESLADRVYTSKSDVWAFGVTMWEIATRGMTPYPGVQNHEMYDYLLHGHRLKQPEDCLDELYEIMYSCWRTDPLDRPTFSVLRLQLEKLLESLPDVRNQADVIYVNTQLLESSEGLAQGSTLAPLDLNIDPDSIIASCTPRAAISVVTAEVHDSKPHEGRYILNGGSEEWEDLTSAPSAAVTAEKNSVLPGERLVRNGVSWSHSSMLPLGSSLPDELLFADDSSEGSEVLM
In short: (§1)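 IC50 reflects the drop in TR-FRET between Eu anti-phosphotyrosine antibody and labelled peptide after a 60-minute room-temperature reaction. Buffer was 50 mM HEPES pH 7.5 with 10 mM MgCl2, 1 mM EGTA, 0.01% Brij 35 and 1 mM DTT, with ATP at Km per enzyme and EDTA quench.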

[2] = biological target: T2, TYRO3 (Homo sapiens, UniProt Q06418); assay: TR-FRET kinase activity assay, TYRO3; assay type: biochemical; details: ATP at Km, 60 minutes
T2 sequence (Q06418 41-890): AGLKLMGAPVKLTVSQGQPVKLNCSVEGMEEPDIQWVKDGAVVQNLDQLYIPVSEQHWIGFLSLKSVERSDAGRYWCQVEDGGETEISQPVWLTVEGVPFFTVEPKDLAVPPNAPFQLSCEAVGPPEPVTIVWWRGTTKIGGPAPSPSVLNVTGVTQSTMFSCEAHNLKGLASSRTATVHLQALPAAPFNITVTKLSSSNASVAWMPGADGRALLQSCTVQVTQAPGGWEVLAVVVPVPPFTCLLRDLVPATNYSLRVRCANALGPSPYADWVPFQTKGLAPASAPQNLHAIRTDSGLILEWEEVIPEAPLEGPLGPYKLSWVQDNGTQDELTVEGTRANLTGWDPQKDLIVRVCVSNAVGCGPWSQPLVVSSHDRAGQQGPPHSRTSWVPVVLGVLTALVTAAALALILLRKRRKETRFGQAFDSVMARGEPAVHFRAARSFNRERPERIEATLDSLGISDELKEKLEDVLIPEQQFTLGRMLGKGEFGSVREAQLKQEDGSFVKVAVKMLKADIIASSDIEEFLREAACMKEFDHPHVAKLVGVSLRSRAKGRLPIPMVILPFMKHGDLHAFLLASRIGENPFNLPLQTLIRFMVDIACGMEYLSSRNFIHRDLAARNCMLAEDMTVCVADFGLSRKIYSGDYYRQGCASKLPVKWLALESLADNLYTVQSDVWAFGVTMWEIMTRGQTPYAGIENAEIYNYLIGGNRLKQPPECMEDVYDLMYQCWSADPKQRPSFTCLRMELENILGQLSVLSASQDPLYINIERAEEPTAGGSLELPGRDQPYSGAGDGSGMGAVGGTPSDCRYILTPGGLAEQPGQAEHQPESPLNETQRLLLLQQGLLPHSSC
In short: as §1

Compound | IC50 [1] | FLT3/Mer ratio (FLT3 IC50/Mer IC50) [1] | IC50 [2]
CNS(=O)(=O)c1ccc(-c2cc([C@H]3CC[C@H](O)CC3)n3nc(N[C@@H](C)COC(F)F)ncc23)cn1 [Compound 424] | ≤ 100 nM | +++ (“+++” represents a ratio of >100) | ≤ 100 nM
COC[C@H](C)Nc1ncc2c(C3=CCN(C(=O)OC(C)(C)C)CC3)cc([C@H]3CC[C@H](O)CC3)n2n1 [Compound 425] | ≤ 100 nM | +++ (“+++” represents a ratio of >100) | ≤ 100 nM
COC[C@H](C)Nc1ncc2c(-c3ccnc(N4CC5(COC5)C4)c3)cc([C@H]3CC[C@H](O)CC3)n2n1 [Compound 426] | ≤ 100 nM | +++ (“+++” represents a ratio of >100) | ≤ 100 nM
COC[C@H](C)Nc1ncc2c(-c3ccnc(N4CCC5(CC4)COC5)c3)cc([C@H]3CC[C@H](O)CC3)n2n1 [Compound 427] | ≤ 100 nM | +++ (“+++” represents a ratio of >100) | ≤ 100 nM
COC[C@H](C)Nc1ncc2c(-c3ccnc(N4CCC5(CCO5)CC4)c3)cc([C@H]3CC[C@H](O)CC3)n2n1 [Compound 430] | ≤ 100 nM | +++ (“+++” represents a ratio of >100) | ≤ 100 nM
COC[C@H](C)Nc1ncc2c(-c3ccnc(NC4CCOCC4)c3)cc([C@H]3CC[C@H](O)CC3)n2n1 [Compound 431] | ≤ 100 nM | +++ (“+++” represents a ratio of >100) | ≤ 100 nM
CCC(=O)N1CCN(c2cc(-c3cc([C@H]4CC[C@H](O)CC4)n4nc(N[C@@H](C)COC)ncc34)ccn2)CC1 [Compound 432] | ≤ 100 nM | +++ (“+++” represents a ratio of >100) | ≤ 100 nM
COC[C@H](C)Nc1ncc2c(-c3ccnc(N4CCNCC4)c3)cc([C@H]3CC[C@H](O)CC3)n2n1 [Compound 434] | ≤ 100 nM | +++ (“+++” represents a ratio of >100) | ≤ 100 nM
C[C@@H](COC(F)F)Nc1ncc2c(-c3cnn(CCS(C)(=O)=O)c3)cc([C@H]3CC[C@H](O)CC3)n2n1 [Compound 436] | ≤ 100 nM | +++ (“+++” represents a ratio of >100) | ≤ 100 nM
C[C@@H](COC(F)F)Nc1ncc2c(-c3cnn(CCC#N)c3)cc([C@H]3CC[C@H](O)CC3)n2n1 [Compound 437] | ≤ 100 nM | +++ (“+++” represents a ratio of >100) | ≤ 100 nM
COC[C@H](C)Nc1ncc2c(-c3ccnc(N4CCOC4=O)c3)cc([C@H]3CC[C@H](O)CC3)n2n1 [Compound 438] | ≤ 100 nM | +++ (“+++” represents a ratio of >100) | ≤ 100 nM
COC[C@H](C)Nc1ncc2c(-c3cnn(CC4CCO4)c3)cc([C@H]3CC[C@H](O)CC3)n2n1 (stereo partly drawn) [Compound 439] | ≤ 100 nM | +++ (“+++” represents a ratio of >100) | ≤ 100 nM
COC[C@H](C)Nc1ncc2c(-c3cnn(C(C)(C)c4nnc(C)o4)c3)cc([C@H]3CC[C@H](O)CC3)n2n1 [Compound 440] | ≤ 100 nM | +++ (“+++” represents a ratio of >100) | ≤ 100 nM
C[C@@H](CC(F)(F)F)Nc1ncc2c(C3=CCNCC3)cc([C@H]3CC[C@H](O)CC3)n2n1 [Compound 442] | ≤ 100 nM | ++ (“++” represents a ratio of between 10 and 100) | ≤ 100 nM
COC[C@H](C)Nc1ncc2c(C3=CCNCC3)cc([C@H]3CC[C@H](O)CC3)n2n1 [Compound 443] | ≤ 100 nM | +++ (“+++” represents a ratio of >100) | ≤ 100 nM
COC[C@H](C)Nc1ncc2c(-c3csc(C(=O)N4CCOCC4)c3)cc([C@H]3CC[C@H](O)CC3)n2n1 [Compound 444] | ≤ 100 nM | +++ (“+++” represents a ratio of >100) | ≤ 100 nM
COC[C@H](C)Nc1ncc2c(-c3ccnc(N4C[C@H]5CC[C@@H](C4)O5)c3)cc([C@H]3CC[C@H](O)CC3)n2n1 [Compound 445] | ≤ 100 nM | +++ (“+++” represents a ratio of >100) | ≤ 100 nM
C[C@@H](CC(F)(F)F)Nc1ncc2c([C@H]3CC[C@@H](C(=O)N4CCOCC4)CC3)cc([C@H]3CC[C@H](O)CC3)n2n1 [Compound 446] | ≤ 100 nM | +++ (“+++” represents a ratio of >100) | ≤ 100 nM
COC[C@H](C)Nc1ncc2c(C#CC(C)(C)C(=O)N3CCOCC3)cc([C@H]3CC[C@H](O)CC3)n2n1 [Compound 449] | ≤ 100 nM | +++ (“+++” represents a ratio of >100) | ≤ 100 nM
COC[C@H](C)Nc1ncc2c(-c3cnn(C(C)(C)C(=O)N4CCC(C)(O)CC4)c3)cc([C@H]3CC[C@H](O)CC3)n2n1 [Compound 450] | ≤ 100 nM | +++ (“+++” represents a ratio of >100) | ≤ 100 nM
COC[C@H](C)Nc1ncc2c(-c3cnn(C(C)(C)C(=O)N4CCC(C)(C#N)CC4)c3)cc([C@H]3CC[C@H](O)CC3)n2n1 [Compound 451] | ≤ 100 nM | +++ (“+++” represents a ratio of >100) | ≤ 100 nM
C[C@H](CC(F)(F)F)Nc1ncc2c(C3=C[C@H]4CC[C@@H](C3)N4C(=O)OC(C)(C)C)cc([C@H]3CC[C@H](O)CC3)n2n1 [Compound 456] | ≤ 100 nM | +++ (“+++” represents a ratio of >100) | ≤ 100 nM
COC[C@H](C)Nc1ncc2c(-c3cnn(C(C)(C)CN4CCOCC4)c3)cc([C@H]3CC[C@H](O)CC3)n2n1 [Compound 459] | ≤ 100 nM | +++ (“+++” represents a ratio of >100) | ≤ 100 nM
COC[C@H](C)Nc1ncc2c(-c3ccc(C(C)(C)C(=O)N4CCOCC4)s3)cc([C@H]3CC[C@H](O)CC3)n2n1 [Compound 460] | ≤ 100 nM | +++ (“+++” represents a ratio of >100) | ≤ 100 nM
COC[C@H](C)Nc1ncc2c(C3=C[C@@H]4CC[C@H](C3)N4)cc([C@H]3CC[C@H](O)CC3)n2n1 [Compound 461] | ≤ 100 nM | +++ (“+++” represents a ratio of >100) | ≤ 100 nM
COC[C@H](C)Nc1ncc2c(C3=C[C@@H]4CC[C@H](C3)N4C(C)=O)cc([C@H]3CC[C@H](O)CC3)n2n1 [Compound 462] | ≤ 100 nM | +++ (“+++” represents a ratio of >100) | ≤ 100 nM
COC[C@H](C)Nc1ncc2c(C3=C[C@@H]4CC[C@H](C3)N4C(=O)N3CCOCC3)cc([C@H]3CC[C@H](O)CC3)n2n1 [Compound 463] | ≤ 100 nM | +++ (“+++” represents a ratio of >100) | ≤ 100 nM
